From paper PMC9412861, “Understanding the pH Dependence of Supersaturation State—A Case Study of Telmisartan” (Pharmaceutics, 2022)
In brackets after ≈: the same amount, converted by molar mass. Read-outs that look alike come from different tables or passages of the source.

Key:
[1] = UV/pH titration in aqueous medium (pKa determination); type: physicochemical; details: for pKa: aqueous 0.15 M KCl solution, UV/pH titration in aqueous medium, I = 0.15 M KCl; for predominant protonated macrospecies: calculated from pKa values at 37 °C
Protocol: The pKa values of telmisartan were determined by UV-pH titration using the D-PAS™ ultra-violet spectrophotometer attached to a GLpKa instrument (Sirius Analytical Instruments Ltd., Forest Row, UK). First, a stock solution of TEL was prepared in methanol (2 mg/mL). […] Spectra were registered in the 200–700 nm region. The pKa values were calculated by RefinementPro^TM software (Sirius Analytical Instruments Ltd., Forest Row, UK).

[2] = Analysis of solubility-pH data with pDISOL-X; type: physicochemical; details: from thermodynamic solubility-pH data in distilled water
From the text: For the analysis of solubility-pH profile, the pDISOL-X^TM program (in-ADME Research, NY, USA) was used. The mathematical approach used in the program for log S-pH simulation-refinement has been described by Völgyi et al.. The program has been applied in several other recent studies.

Structure (SMILES): CCCc1nc2c(C)cc(-c3nc4ccccc4n3C)cc2n1Cc1ccc(-c2ccccc2C(=O)O)cc1 [Telmisartan, telmisartan]
- pKa ([1]; 25 °C, read-out: pKa1 ± SD (Carboxyl Group)): 3.03 ± 0.04
- pKa ([1]; 25 °C, read-out: pKa2 ± SD (Middle Benzimidazole Ring)): 4.22 ± 0.09
- pKa ([1]; 25 °C, read-out: pKa3 ± SD (Terminal Benzimidazole Ring)): 6.08 ± 0.07
- pKa ([1]; 37 °C, read-out: pKa1 ± SD (Carboxyl Group)): 3.04 ± 0.03
- pKa ([1]; 37 °C, read-out: pKa2 ± SD (Middle Benzimidazole Ring)): 4.08 ± 0.02
- pKa ([1]; 37 °C, read-out: pKa3 ± SD (Terminal Benzimidazole Ring)): 5.91 ± 0.05
- predominant protonated macrospecies ([1]; gastric pH (pH 1–2)): dication (XH3^2+)
- predominant protonated macrospecies ([1]; intestinal pH (pH 5–6.5)): monoprotonated (XH) and the unprotonated anionic (X^−)
- predominant protonated macrospecies ([1]; pH of plasma (pH 7.4)): anionic (X^−)
- dimerization constant logK21 [2]: 6.48 ± 0.19
- dimerization constant logK22 [2]: 6.35 ± 0.47
- solubility ([2]; thermodynamic from solid, read-out: calculated intrinsic solubility logS0 (converted)): 0.302 µM (≈ 0.155 µg/mL)
